# Assay results reported in patent EP4656642A1, “ESTROGEN RECEPTOR PROTEOLYSIS TARGETING CHIMERA COMPOUND AND USE THEREOF” (GAN & LEE PHARM CO., LTD, priority 2023, dated 2024).
# Residue numbers refer to the chain shown, from its start. Where two headings read alike, the source gives them in different places.
# Key:
# Type in all cases: cell-based
# VCaP cells = experiment: Inhibition of proliferation of VCaP cells (WST-8, 168 hours)
# Experimental: Test Example 7 Inhibitory activity of the compounds disclosed in the present disclosure on the proliferation of VCaP cells
# VCaP cells (ATCC, CRL-2876) were cultured in DMEM (Gibco, 11995-065) complete medium containing 10% fetal bovine serum (Hyclone, SH30406.05). On the first day of the experiment, VCaP cells were inoculated in 96-well plates at a density of 15,000 cells/well using DMEM medium containing 10% fetal bovine serum, with 100µL of cell suspension per well, and placed in a cell culture incubator with 5% CO2 at 37°C overnight. […] The compound concentrations were prepared in complete DMEM medium and serially diluted 5-fold starting from 10 µM, resulting in a total of nine concentration points. Wells receiving 100 µL of DMEM medium containing 10% FBS only were used as blank controls. The plates were incubated at 37°C in a 5% CO2 incubator for 168 hours.
# LNCAP FGC cells = experiment: Inhibition of LNCAP cell proliferation (WST-8, 96 hours)
# Experimental: Test Example 8 Inhibitory activity of the compounds disclosed in the present disclosure on LNCAP cell proliferation
# LNCAP FGC cells (ATCC, CLR-1740) were cultured in RPMI 1640 (ATCC, 30-2001) complete medium containing 10% fetal bovine serum (Hyclone, SH30406.05). On the first day of the experiment, LNCaP FGC cells were inoculated in 96-well plates at a density of 5,000 cells/well using RPMI 1640 medium containing 10% fetal bovine serum, with 100µL of cell suspension per well, and placed in a cell culture incubator with 5% CO2 at 37°C overnight. […] The compound concentrations were prepared in complete […] medium and serially diluted 5-fold starting from 10 µM, resulting in a total of nine concentration points. Wells receiving 100 µL of RPMI 1640 medium containing 10% FBS only were used as controls. The plates were incubated at 37°C in a 5% CO2 incubator for 96 hours.
# AR protein [1] = biological target: T1, AR protein (Homo sapiens, UniProt P10275, T878A); experiment: Degradation of AR protein in LNCAP cells (Western blot, 8 h); details: LNCaP FGC cells
# T1 construct: host or cells: LNCaP FGC
# T1 sequence (P10275 1-920 T878A): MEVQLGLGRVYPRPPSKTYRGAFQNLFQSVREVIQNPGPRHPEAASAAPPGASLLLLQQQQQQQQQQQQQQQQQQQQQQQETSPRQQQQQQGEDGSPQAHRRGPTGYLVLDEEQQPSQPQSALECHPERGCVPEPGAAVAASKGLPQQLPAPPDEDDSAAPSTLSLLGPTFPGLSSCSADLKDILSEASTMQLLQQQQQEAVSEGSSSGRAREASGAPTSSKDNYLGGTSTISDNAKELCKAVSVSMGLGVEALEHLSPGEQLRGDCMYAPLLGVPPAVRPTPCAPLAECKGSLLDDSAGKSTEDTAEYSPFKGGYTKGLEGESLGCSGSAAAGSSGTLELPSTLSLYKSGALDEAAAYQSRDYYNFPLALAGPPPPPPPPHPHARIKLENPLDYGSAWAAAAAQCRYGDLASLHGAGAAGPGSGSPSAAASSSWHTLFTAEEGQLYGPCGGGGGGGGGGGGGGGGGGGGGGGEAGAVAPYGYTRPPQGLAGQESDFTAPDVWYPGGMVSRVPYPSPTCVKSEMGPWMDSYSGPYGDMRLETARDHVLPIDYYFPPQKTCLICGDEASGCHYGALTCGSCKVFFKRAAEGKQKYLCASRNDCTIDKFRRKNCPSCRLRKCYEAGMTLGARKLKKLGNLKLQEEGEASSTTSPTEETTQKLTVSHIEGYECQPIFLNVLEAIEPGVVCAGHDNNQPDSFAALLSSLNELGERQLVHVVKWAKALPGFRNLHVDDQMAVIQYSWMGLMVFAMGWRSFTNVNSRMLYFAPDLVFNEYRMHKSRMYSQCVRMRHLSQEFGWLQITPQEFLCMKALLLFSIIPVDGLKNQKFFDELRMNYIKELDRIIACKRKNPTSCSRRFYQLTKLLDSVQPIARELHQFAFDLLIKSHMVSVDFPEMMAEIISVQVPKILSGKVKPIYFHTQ
# Experimental: After 8 h, the culture medium was discarded, and the cells were washed with PBS. After the cells were washed with PBS, RIPA lysis buffer containing 1% Protease Inhibitor Cocktail was added, and the total protein extract was obtained after lysis and centrifugation, and the protein concentration in the extract was detected by BCA method. Protein electrophoresis was carried out by SDS-PAGE, after which the proteins were transferred to PVDF (Millipore Sigma Catalog No. PSRP010R5) membrane by 100V constant voltage electrotransfer for 60 min, and the PVDF membrane was placed in 1×TBST solution with 5% milk and blocked at room temperature for 1h. […] The primary antibody solution was discarded, and the PVDF membrane was washed three times with 1× TBST for 5 min each. […] The secondary antibody solution was discarded, and the PVDF membrane was washed three times with 1× TBST for 5 min each. Western membrane imaging was performed using a dual-color infrared laser imaging system (Licor catalog number Odyssey CLX). Bands were analyzed in grayscale using the software Image Studio. For each sample, GAPDH protein bands were detected as internal reference. The degradation rates of the AR protein for the compounds and positive control sample were calculated based on the grayscale of the protein bands.
# AR protein [2] = biological target: T2, AR protein (Homo sapiens, UniProt P10275); details: 8 h
# T2 construct: host or cells: VCaP
# T2 sequence (P10275 1-920): T1 sequence (P10275 1-920 T878A) with A878T
# Experimental: Test Example 9 Degradation activity of the compounds disclosed in the present disclosure against AR protein in VCAP cells (cell source: ATCC)
# AR-positive human prostate cancer cells, VCaP, were inoculated in six-well microplates (Thermo Catalog No. 140675) in DMEM (GiBco Catalog No. 11995-065) containing 10% FBS (Hyclone Catalog No. SH30406.05) at a density of 3 × 10^5 cells/well. […] After 8 h, the culture medium was discarded, and cells were washed with PBS, then RIPA lysis buffer containing 1% Protease Inhibitor Cocktail was added, and the total protein extract was obtained after lysis and centrifugation, and the protein concentration in the extract was detected by BCA method. Protein electrophoresis was carried out by SDS-PAGE, after which the protein was transferred to PVDF (Millipore Sigma catalog number PSRP010R5) membrane by 100V constant-voltage electrotransfer for 60 min, and the PVDF membrane was placed in 1×TBST solution with 5% milk and blocked at room temperature for 1 h. The primary antibody solution (Anti-Androgen receptor, Cell Signaling Technology Catalog No. 5153S; 1: 2000 dilution) was prepared and incubated overnight at 4°C. The primary antibody solution was discarded, and the PVDF membrane was washed three times with 1× TBST for 5 min each. The secondary antibody solution (Thermo catalog number SA5-35571; 1:7500 dilution) was prepared, and the secondary antibody dilution was incubated at room temperature for 1h. The secondary antibody solution was discarded, and the PVDF membrane was washed three times with 1×TBST for 5 min each. Western membrane imaging was performed using a dual-color infrared laser imaging system (Licor catalog number Odyssey CLX). Bands were analyzed in grayscale using the software Image Studio. For each sample, GAPDH protein bands were detected as internal reference. The degradation rates of the AR protein for the compounds and positive control sample were calculated based on the grayscale of the protein bands.
# [3] = LNCAP FGC cells, 96 hours, WST-8
SMILES,"IC50 (VCaP cells; VCaP cells, 168 hours, WST-8) [µM]",IC50 (LNCAP FGC cells; [3]) [µM],"Degradation rates of the AR protein in LNCAP cells, 10 nM (%) (AR protein [1])","Degradation rates of the AR protein in LNCAP cells, 100 nM (%) (AR protein [1])","Degradation rates of the AR protein in VCAP cells, 0.5 nM (AR protein [2]) [%]","Degradation rates of the AR protein in VCAP cells, 5 nM (AR protein [2]) [%]",IC50 (VCaP cells) [µM],IC50 (LNCAP FGC cells) [µM]
COc1cc(O[C@H]2CC[C@H](NC(=O)c3ccc(N4CCC(CN5CCC6(CC5)COc5c6ccc6c5C(=O)N(C5CCC(=O)NC5=O)C6)(OC)CC4)nn3)CC2)ccc1C#N (relative stereo) [2-264],0.003,33.6,52,71,–,–,–,–
N#Cc1ccc(O[C@H]2CC[C@H](NC(=O)c3ccc(N4CCC(CN5CCC6(CC5)COc5c6ccc6c5C(=O)N(C5CCC(=O)NC5=O)C6)CC4)nn3)CC2)cc1Cl (relative stereo) [2-313],–,34.3,75,79,78,89,–,–
COc1cc(O[C@H]2CC[C@H](NC(=O)c3ccc(N4CCC(CN5CCC6(CC5)COc5c6ccc6c5C(=O)N(C5CCC(=O)NC5=O)C6)CC4)nn3)CC2)ccc1C#N (relative stereo) [2-314],–,42.4,69,76,86,91,–,–
COC1(CN2CCC3(CCc4cc5c(cc4O3)C(=O)N(C3CCC(=O)NC3=O)C5)CC2)CCN(c2ccc(N3CCC4(CC3)C[C@H](C)N(c3ccc(C#N)c(Cl)c3)C4)cc2)CC1 (stereo partly drawn) [2-99],–,–,–,–,–,–,0.007,2.71
C[C@H]1CC2(CCN(c3ccc(N4CCC(C)(CN5CCC6(CCc7cc8c(cc7O6)C(=O)N(C6CCC(=O)NC6=O)C8)CC5)CC4)cc3)CC2)CN1c1ccc(C#N)c(Cl)c1 (stereo partly drawn) [2-101],–,–,–,–,–,–,0.01,5.08
